Experimental data from patent US11053204B2, “Pyrimidinyloxy benzene derivatives as herbicides” (FMC Corporation, priority 2015, dated 2021).

Key:
Type in all cases: in vivo
kochia (Kochia scoparia) = test: Test C preemergence, plant response rating
[1] = system: surinam grass (Brachiaria decumbens); test: Test C preemergence, plant response rating
[2] = system: oat, wild (wild oat Avena fatua); test: Test C preemergence, plant response rating
[3] = system: galium (catchweed bedstraw, Galium aparine); test: Test C preemergence, plant response rating
[4] = system: lambsquarters (Chenopodium album); test: Test C postemergence, plant response rating; details: for Lambsquarters plant response rating: scale 0 to 100 (0 no effect, 100 complete control)
Procedure, shortened: (§1)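 Both timings shared one formulation, a non-phytotoxic solvent mixture with surfactant, and a greenhouse period of 13 to 15 d. Preemergence used seeded loam/sand or silt loam soil, postemergence used 2 to 18 cm plants; visual ratings ran from 0 (no effect) to 100 (complete control).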

[5] = system: blackgrass (Alopecurus myosuroides); test: Test C postemergence, plant response rating; details: for Plant response rating, Blackgrass: scale 0 to 100; for Blackgrass plant response rating: scale 0 to 100 (0 no effect, 100 complete control)
Procedure, shortened: as §1

[6] = system: wheat (winter wheat, Triticum aestivum); test: Test C postemergence, plant response rating
Procedure, shortened: as §1

[7] = system: oat, wild (wild oat Avena fatua); test: Test C postemergence, plant response rating; details: for Oat, Wild plant response rating: scale 0 to 100 (0 no effect, 100 complete control)
Procedure, shortened: as §1

[8] = system: barnyardgrass (Echinochloa crus-galli); test: Test C postemergence, plant response rating; details: for Plant response rating, Barnyardgrass: scale 0 to 100; for Barnyardgrass plant response rating: scale 0 to 100 (0 no effect, 100 complete control)
Procedure, shortened: as §1

[9] = system: velvetleaf (Abutilon theophrasti); test: Test C postemergence, plant response rating
Procedure, shortened: as §1

[10] = system: ragweed (common ragweed, Ambrosia elatior); test: Test C postemergence, plant response rating; details: for Ragweed plant response rating: scale 0 to 100 (0 no effect, 100 complete control)
Procedure, shortened: as §1

[11] = system: crabgrass, large (large crabgrass, Digitaria sanguinalis); test: Test C postemergence, plant response rating; details: for Crabgrass, Large plant response rating: scale 0 to 100 (0 no effect, 100 complete control)
Procedure, shortened: as §1

soybean (Glycine max) = test: Test C postemergence, plant response rating; details: for Soybean plant response rating: scale 0 to 100 (0 no effect, 100 complete control)
Procedure, shortened: as §1

[12] = system: oilseed rape (Brassica napus); test: Test C postemergence, plant response rating; details: for Oilseed Rape plant response rating: scale 0 to 100 (0 no effect, 100 complete control)
Procedure, shortened: as §1

corn (Zea mays) = test: Test C postemergence, plant response rating; details: for Corn plant response rating: scale 0 to 100 (0 no effect, 100 complete control)
Procedure, shortened: as §1

[13] = system: ryegrass, Italian (Italian ryegrass, Lolium multiflorum); test: Test C postemergence, plant response rating; details: for Ryegrass, Italian plant response rating: scale 0 to 100 (0 no effect, 100 complete control)
Procedure, shortened: as §1

[14] = system: nutsedge, yellow (yellow nutsedge, Cyperus esculentus); test: Test C postemergence, plant response rating; details: for Nutsedge, Yellow plant response rating: scale 0 to 100 (0 no effect, 100 complete control)
Procedure, shortened: as §1

[15] = system: waterhemp (common waterhemp, Amaranthus rudis); test: Test C postemergence, plant response rating
Procedure, shortened: as §1

[16] = system: foxtail, giant (giant foxtail, Setaria faberii); test: Test C postemergence, plant response rating; details: for Foxtail, Giant plant response rating: scale 0 to 100 (0 no effect, 100 complete control)
Procedure, shortened: as §1

[17] = system: galium (catchweed bedstraw, Galium aparine); test: Test C postemergence, plant response rating; details: for Galium plant response rating: scale 0 to 100 (0 no effect, 100 complete control)
Procedure, shortened: as §1

[18] = 125 g ai/ha, scale 0 to 100 (0 no effect, 100 complete control)

## O=C(CCCC(F)(F)F)c1c(Oc2ncc(Cl)cn2)cccc1C(F)(F)F [Compound 125]
Kochia (Kochia scoparia); 31 g ai/ha, scale 0 to 100
  Plant response rating, Kochia: 60
Kochia (Kochia scoparia); 62 g ai/ha, scale 0 to 100
  Plant response rating, Kochia: 90
Kochia (Kochia scoparia); 125 g ai/ha, scale of 0 to 100
  Plant response rating, Kochia: 98
[1]; 31 g ai/ha, scale 0 to 100
  Plant response rating, Surinam Grass: 20
[1]; 62 g ai/ha, scale 0 to 100
  Plant response rating, Surinam Grass: 40
[1]; 125 g ai/ha, scale of 0 to 100
  Plant response rating, Surinam Grass: 65
[2]; 31 g ai/ha, scale 0 to 100
  Plant response rating, Oat, Wild: 0
[2]; 62 g ai/ha, scale 0 to 100
  Plant response rating, Oat, Wild: 10
[2]; 125 g ai/ha, scale of 0 to 100
  Plant response rating, Oat, Wild: 55
[3]; 31 g ai/ha, scale 0 to 100
  Plant response rating, Galium: 5
[3]; 62 g ai/ha, scale 0 to 100
  Plant response rating, Galium: 30
[3]; 125 g ai/ha, scale of 0 to 100
  Plant response rating, Galium: 80
[4]; 16 g ai/ha, scale of 0 to 100
  Plant response rating, Lambsquarters: 70
[4]; 31 g ai/ha, scale 0 to 100
  Plant response rating, Lambsquarters: 98
[4]; 62 g ai/ha
  Lambsquarters plant response rating: 95
[4]; 125 g ai/ha
  Lambsquarters plant response rating: 100
[5]; 16 g ai/ha
  Plant response rating, Blackgrass: 10
[5]; 31 g ai/ha
  Plant response rating, Blackgrass: 20
[5]; 62 g ai/ha
  Blackgrass plant response rating: 15
[5]; 125 g ai/ha
  Blackgrass plant response rating: 30
[6]; 16 g ai/ha, scale of 0 to 100
  Plant response rating, Wheat: 5
[6]; 31 g ai/ha, scale 0 to 100
  Plant response rating, Wheat: 5
[6]; [18]
  Wheat plant response rating: 25
[7]; 16 g ai/ha, scale of 0 to 100
  Plant response rating, Oat, Wild: 5
[7]; 31 g ai/ha, scale 0 to 100
  Plant response rating, Oat, Wild: 10
[7]; 62 g ai/ha
  Oat, Wild plant response rating: 15
[7]; 125 g ai/ha
  Oat, Wild plant response rating: 15
[8]; 16 g ai/ha
  Plant response rating, Barnyardgrass: 5
[8]; 31 g ai/ha
  Plant response rating, Barnyardgrass: 5
[8]; 62 g ai/ha
  Barnyardgrass plant response rating: 5
[8]; 125 g ai/ha
  Barnyardgrass plant response rating: 10
[9]; 16 g ai/ha, scale of 0 to 100
  Plant response rating, Velvetleaf: 20
[9]; 31 g ai/ha, scale 0 to 100
  Plant response rating, Velvetleaf: 35
[9]; [18]
  Velvetleaf plant response rating: 30
[10]; 16 g ai/ha, scale of 0 to 100
  Plant response rating, Ragweed: 5
[10]; 31 g ai/ha, scale 0 to 100
  Plant response rating, Ragweed: 35
[10]; 62 g ai/ha
  Ragweed plant response rating: 45
[10]; 125 g ai/ha
  Ragweed plant response rating: 55
[11]; 16 g ai/ha, scale of 0 to 100
  Plant response rating, Crabgrass, Large: 10
[11]; 31 g ai/ha, scale 0 to 100
  Plant response rating, Crabgrass, Large: 10
[11]; 62 g ai/ha
  Crabgrass, Large plant response rating: 15
[11]; 125 g ai/ha
  Crabgrass, Large plant response rating: 20
Soybean (Glycine max); 16 g ai/ha, scale of 0 to 100
  Plant response rating, Soybean: 25
Soybean (Glycine max); 31 g ai/ha, scale 0 to 100
  Plant response rating, Soybean: 60
Soybean (Glycine max); 62 g ai/ha
  Soybean plant response rating: 65
Soybean (Glycine max); 125 g ai/ha
  Soybean plant response rating: 70
[12]; 16 g ai/ha, scale of 0 to 100
  Plant response rating, Oilseed Rape: 80
[12]; 31 g ai/ha, scale 0 to 100
  Plant response rating, Oilseed Rape: 85
[12]; 62 g ai/ha
  Oilseed Rape plant response rating: 90
[12]; 125 g ai/ha
  Oilseed Rape plant response rating: 95
Corn (Zea mays); 16 g ai/ha, scale of 0 to 100
  Plant response rating, Corn: 10
Corn (Zea mays); 31 g ai/ha, scale 0 to 100
  Plant response rating, Corn: 10
Corn (Zea mays); 62 g ai/ha
  Corn plant response rating: 15
Corn (Zea mays); 125 g ai/ha
  Corn plant response rating: 20
[13]; 16 g ai/ha, scale of 0 to 100
  Plant response rating, Ryegrass, Italian: 5
[13]; 31 g ai/ha, scale 0 to 100
  Plant response rating, Ryegrass, Italian: 5
[13]; 62 g ai/ha
  Ryegrass, Italian plant response rating: 10
[13]; 125 g ai/ha
  Ryegrass, Italian plant response rating: 15
[14]; 16 g ai/ha, scale of 0 to 100
  Plant response rating, Nutsedge, Yellow: 5
[14]; 31 g ai/ha, scale 0 to 100
  Plant response rating, Nutsedge, Yellow: 5
[14]; 62 g ai/ha
  Nutsedge, Yellow plant response rating: 5
[14]; 125 g ai/ha
  Nutsedge, Yellow plant response rating: 10
[15]; 16 g ai/ha, scale of 0 to 100
  Plant response rating, Waterhemp: 75
[15]; 31 g ai/ha, scale 0 to 100
  Plant response rating, Waterhemp: 80
[15]; [18]
  Waterhemp plant response rating: 90
[16]; 16 g ai/ha, scale of 0 to 100
  Plant response rating, Foxtail, Giant: 10
[16]; 31 g ai/ha, scale 0 to 100
  Plant response rating, Foxtail, Giant: 10
[16]; 62 g ai/ha
  Foxtail, Giant plant response rating: 10
[16]; 125 g ai/ha
  Foxtail, Giant plant response rating: 25
[17]; 16 g ai/ha, scale of 0 to 100
  Plant response rating, Galium: 65
[17]; 31 g ai/ha, scale 0 to 100
  Plant response rating, Galium: 70
[17]; 62 g ai/ha
  Galium plant response rating: 80
[17]; 125 g ai/ha
  Galium plant response rating: 90
